Measured values from patent US12030903B2, “Antiviral compounds” (Gilead Sciences, Inc., priority 2020, dated 2024).

Key:
[1] = test system: Dengue serotype 2 New Guinea C (NGC) strain; experiment: DENV-2 Huh-7 EC50 (qPCR of viral RNA in infected Huh7 cells); format: cell-based; details: Dengue virus, DENV2, Huh-7, Huh7 cells infected with Dengue serotype 2 NGC, MOI=0.1, 48 hours
Procedure: Huh7 (Human hepatocarcinoma 7) cells were maintained in 10% FCS-containing DMEM complete media. On the day of the assay, cells were trypsinized (0.1% Trypsin-EDTA), washed and infected for 2 hours in serum-free DMEM with Dengue serotype 2 New Guinea C (NGC) strain at MOI=0.1 with gentle agitation at 37° C. After 2 hours, cells were washed with serum-free media and suspended in 10% FCS-containing DMEM (Gibco, supplemented with sodium pyruvate, NEAA, Penicillin-Streptomycin). 10^5 cells were plated in triplicate in 96-well plates with compounds dispensed at graded doses (Hewlett-Packard D300 Digital Dispenser). All wells were normalized to 0.25% DMSO. At 48 hours, cells were washed with 1× PBS and all supernatants removed. Total RNA was extracted using RNEasy 96 plates (Qiagen) and used to generate first-strand cDNA using XLT cDNA 5× Supermix (QuantaBio). cDNA was used as a template in a Taqman qPCR duplex reaction specific to DENV2 viral and GAPDH gene expression. EC50 values were determined using Prism Graphpad software, with normalization to a positive control and no compound negative control wells.

RSV strain A2 = experiment: RSV HEp-2 EC50 (infectious cytopathic cell protection assay); format: cell-based, RSV strain A2; HEp-2 cells; details: human respiratory syncytial virus, HEp-2, 96 h, read-out: RSV Hep-2 EC50
Procedure: Example 86. RSV HEp-2 EC50
Antiviral activity against RSV is determined using an infectious cytopathic cell protection assay in HEp-2 cells. In this assay, compounds inhibiting viral infection and/or replication produce a cytoprotective effect against the virus-induced cell killing that can be quantified using a cell viability reagent. The techniques used here are novel adaptations of methods described in published literature (Chapman et al., Antimicrob Agents Chemother. 2007, 51(9):3346-53.)
HEp-2 cells are obtained from ATCC (Manassas, VI) and maintained in MEM media supplemented with 10% fetal bovine serum and penicillin/streptomycin. Cells are passaged twice a week and kept at subconfluent stage. Commercial stock of RSV strain A2 (Advanced Biotechnologies, Columbia, MD) is titered before compound testing to determine the appropriate dilution of the virus stock that generates desirable cytopathic effect in HEp-2 cells.
For antiviral tests, HEp-2 cells are grown in large cell culture flasks to near confluency but not fully so. The compounds to be tested are prediluted in DMSO in 384-well compound dilution plates, either in an 8 or 40 sample per plate standardized dose response format. 3-fold serial dilution increments of each test compound are prepared in the plates and test samples are transferred via acoustic transfer apparatus (Echo, Labcyte) at 100 nL per well into cell culture assay 384-well plates. Each compound dilution is transferred in single or quadruplicate samples into dry assay plates, which are stored until assay is ready to go. The positive and negative controls are laid out in opposite on ends of the plate in vertical blocks (1 column).
Subsequently, an infectious mixture is prepared using an appropriate dilution of virus stock previously determined by titration with cells at a density of 50,000/mL and 20 uL/well is added to test plates w/compounds via automation (uFlow, Biotek). Each plate includes negative and positive controls (16 replicates each) to create 0% and 100% virus inhibition standards, respectively. Following the infection with RSV, testing plates are incubated for 4 days in a 37° C. cell culture incubator. After the incubation, a cell viability reagent, Cell TiterGlo (Promega, Madison, WI) is added to the assay plates, which are incubated briefly, and a luminescent readout is measured (Envision, Perkin Elmer) in all the assay plates. The RSV-induced cytopathic effect, percentage inhibition, is determined from the levels of remaining cell viability. […] Various potent anti-RSV tool compounds are used as positive controls for antiviral activity.

[2] = HEp-2 CC50 (cytotoxicity in uninfected HEp-2 cells); format: cell-based; details: human, CellTiter Glo
Procedure: Instead, an uninfected cell mixture at the same density is added at 20 uL/well to plates containing prediluted compounds, also at 100 nL/sample. Assay plates are then incubated for 4 days followed by a cell viability test using the same CellTiter Glo reagent addition and measurement of luminescent readouts. Untreated cell and cells treated at 2 μM puromycin (Sigma, St. Louis, MO) serve as 100% and 0% cell viability control, respectively.

[3] = Huh-7 CC50 (CellTiter Glo viability); format: cell-based, Human; details: human, Huh7 hepatocarcinoma cells
Procedure: Human hepatocarcinoma 7 (Huh7) cells were maintained in 10% FCS-containing complete DMEM. On day of assay, cells were trypsinized with 0.1% Trypsin-EDTA, washed and cultured in triplicate at 1-2×10^4 cells/well in 96-well plates with compounds dispensed at graded doses (Hewlett-Packard D300 Digital Dispenser). All wells were normalized to 0.25% DMSO. After 48 hours, CellTiter Glo (Promega) was added and incubated for 10 minutes at room temp before reading on a luminometer. % viability curves were calculated against no compound and no cell control wells. CC50 values were determined using Prism Graphpad software.

| Compound | EC50 [1] [nM] | EC50 (RSV strain A2) [nM] | CC50 at 4 days [2] [µM] | CC50 at 48 h [3] [µM] |
| --- | --- | --- | --- | --- |
| CCOC(=O)[C@H](C)NP(=O)(OC[C@@]1(CF)O[C@@H](c2ccc3c(N)ncnn23)[C@H](O)[C@@H]1O)Oc1ccc(C(C)(C)C)cc1 (mixture of isomers) [Example 47, ethyl ((((2R,3S,4R,5S)-5-(4-aminopyrrolo[2,1-f][1,2,4]triazin-7-yl)-2-(fluoromethyl)-3,4-dihydroxytetrahydrofuran-2-yl)methoxy)(4-(tert-butyl)phenoxy)phosphoryl)-L-alaninate] | 650 | 389 | 65.9 | 21.4 |
| CCC(=O)O[C@H]1[C@H](c2ccc3c(N)ncnn23)O[C@](CF)(CO[P@@](=O)(N[C@@H](C)C(=O)OCC(CC)CC)Oc2ccccc2)[C@H]1OC(=O)CC (single isomer, unassigned) [Example 61] | 568 | 855 | 19.1 | 15 |
| CCC(CC)COC(=O)[C@H](C)N[P@](=O)(OC[C@@]1(CF)O[C@@H](c2ccc3c(N)ncnn23)[C@H](OC(=O)C(C)C)[C@@H]1OC(=O)C(C)C)Oc1ccccc1 (single isomer, unassigned) [Example 62] | 662 | 10100 | – | 8.09 |
| CC(C)C(=O)O[C@H]1[C@H](c2ccc3c(N)ncnn23)O[C@](CF)(CO[P@@](=O)(N[C@@H](C)C(=O)OC2COC2)Oc2ccccc2)[C@H]1OC(=O)C(C)C (single isomer, unassigned) [Example 73] | 302 | – | – | 9.34 |
| CCC(CC)COC(=O)[C@H](C)NP(=O)(OC[C@@]1(CCl)O[C@@H](c2ccc3c(N)ncnn23)[C@H](O)[C@@H]1O)Oc1ccccc1 (stereo partly drawn) [Comp. Ex. 1, 2-ethylbutyl ((((2R,3S,4R,5S)-5-(4-aminopyrrolo[2,1-f][1,2,4]triazin-7-yl)-2-(chloromethyl)-3,4-dihydroxytetrahydrofuran-2-yl)methoxy)(phenoxy)phosphoryl)-L-alaninate, reference compound] | 2330 | – | – | – |
| CCCCCCOC(=O)[C@H](C)NP(=O)(OC[C@@]1(CF)O[C@@H](c2ccc3c(N)ncnn23)[C@H](O)[C@@H]1O)Oc1ccccc1 (stereo partly drawn) [Example 17, hexyl ((((2R,3S,4R,5S)-5-(4-aminopyrrolo[2,1-f][1,2,4]triazin-7-yl)-2-(fluoromethyl)-3,4-dihydroxytetrahydrofuran-2-yl)methoxy)(phenoxy)phosphoryl)-L-alaninate] | 510 | 516 | > 100 | > 25 |
| CC(=O)O[C@H]1[C@H](c2ccc3c(N)ncnn23)O[C@](CF)(CO[P@@](=O)(N[C@@H](C)C(=O)OC(C)C)Oc2ccccc2)[C@H]1OC(C)=O [Example 20, (2R,3S,4S,5S)-5-(4-aminopyrrolo[2,1-f][1,2,4]triazin-7-yl)-2-(fluoromethyl)-2-((((S)-(((S)-1-isopropoxy-1-oxopropan-2-yl)amino)(phenoxy)phosphoryl)oxy)methyl) tetrahydrofuran-3,4-diyl diacetate] | 2570 | 3180 | > 100 | > 25 |
| C[C@H](NP(=O)(OC[C@@]1(CF)O[C@@H](c2ccc3c(N)ncnn23)[C@H](O)[C@@H]1O)Oc1ccccc1)C(=O)OCC(C)(C)O (stereo partly drawn) [Example 26, 2-hydroxy-2-methylpropyl ((((2R,3S,4R,5S)-5-(4-aminopyrrolo[2,1-f][1,2,4]triazin-7-yl)-2-(fluoromethyl)-3,4-dihydroxytetrahydrofuran-2-yl)methoxy)(phenoxy)phosphoryl)-L-alaninate] | > 24000 | 39300 | > 100 | > 25 |
| CO[C@@H](C)COC(=O)[C@H](C)NP(=O)(OC[C@@]1(CF)O[C@@H](c2ccc3c(N)ncnn23)[C@H](O)[C@@H]1O)Oc1ccccc1 (stereo partly drawn) [Example 30, (S)-2-methoxypropyl ((((2R,3S,4R,5S)-5-(4-aminopyrrolo[2,1-f][1,2,4]triazin-7-yl)-2-(fluoromethyl)-3,4-dihydroxytetrahydrofuran-2-yl)methoxy)(phenoxy)phosphoryl)-L-alaninate] | – | 4130 | > 100 | – |
| C[C@H](NP(=O)(OC[C@@]1(CF)O[C@@H](c2ccc3c(N)ncnn23)[C@H](O)[C@@H]1O)Oc1ccccc1)C(=O)O[C@@H]1CCN(C)C1 (stereo partly drawn) [Example 35, (R)-1-methylpyrrolidin-3-yl ((((2R,3S,4R,5S)-5-(4-aminopyrrolo[2,1-f][1,2,4]triazin-7-yl)-2-(fluoromethyl)-3,4-dihydroxytetrahydrofuran-2-yl)methoxy) (phenoxy)phosphoryl)-L-alaninate] | > 25000 | 42800 | > 100 | > 25 |
| CO[C@H](C)COC(=O)[C@H](C)NP(=O)(OC[C@@]1(CF)O[C@@H](c2ccc3c(N)ncnn23)[C@H](O)[C@@H]1O)Oc1ccccc1 (stereo partly drawn) [Example 39, (R)-2-methoxypropyl ((((2R,3S,4R,5S)-5-(4-aminopyrrolo[2,1-f][1,2,4]triazin-7-yl)-2-(fluoromethyl)-3,4-dihydroxytetrahydrofuran-2-yl)methoxy)(phenoxy)phosphoryl)-L-alaninate] | – | 2470 | > 100 | – |
| CCOC(=O)[C@H](C)NP(=O)(OC[C@@]1(CF)O[C@@H](c2ccc3c(N)ncnn23)[C@H](O)[C@@H]1O)Oc1cccc2ccccc12 (stereo partly drawn) [Example 44, ethyl ((((2R,3S,4R,5S)-5-(4-aminopyrrolo[2,1-f][1,2,4]triazin-7-yl)-2-(fluoromethyl)-3,4-dihydroxytetrahydrofuran-2-yl)methoxy)(naphthalen-1-yloxy)phosphoryl)-L-alaninate] | 191 | 148 | 26.5 | 17.1 |
| C[C@H](NP(=O)(OC[C@@]1(CF)O[C@@H](c2ccc3c(N)ncnn23)[C@H](O)[C@@H]1O)Oc1ccccc1)C(=O)OC1CCOCC1 (stereo partly drawn) [Example 64, tetrahydro-2H-pyran-4-yl ((((2R,3S,4R,5S)-5-(4-aminopyrrolo[2,1-f][1,2,4]triazin-7-yl)-2-(fluoromethyl)-3,4-dihydroxytetrahydrofuran-2-yl)methoxy)(phenoxy)phosphoryl)-L-alaninate] | 2000 | – | – | > 25 |
| CCC(CC)COC(=O)[C@H](C)N[P@](=O)(OC[C@@]1(CF)O[C@@H](c2ccc3c(NC(=O)c4ccccc4)ncnn23)[C@H](O)[C@@H]1O)Oc1ccccc1 [Example 75, 2-ethylbutyl ((S)-(((2R,3S,4R,5S)-5-(4-benzamidopyrrolo[2,1-f][1,2,4]triazin-7-yl)-2-(fluoromethyl)-3,4-dihydroxytetrahydrofuran-2-yl)methoxy)(phenoxy)phosphoryl)-L-alaninate] | 175 | – | – | – |
